Patent US12655116B2, “Substituted isophthalic acid diamides” (Bayer Aktiengesellschaft, priority 2020, dated 2026)
Values joined by “and” are separate entries in the source; they are usually repeats but may differ in a detail not shown here. Equal values may be shown once.

Experiments:
[1] = test system: AVEFA; assay: Pre-emergence herbicidal action against AVEFA; format: in vivo, Avena fatua; settings: Avena fatua, 504 h, pre-emergence
Summary of the method: (§1)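 Greenhouse pots of sandy loam held seeds covered with soil, onto which the compound was applied before emergence. An aqueous suspension or emulsion of WP or EC was used at 600 to 800 l/ha with 0.2% wetting agent. Percent damage was judged visually at 3 weeks.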

[2] = test system: ECHCG; assay: Pre-emergence herbicidal action against ECHCG; format: in vivo, Echinochloa crus-galli
Summary of the method: as §1

[3] = test system: AVEFA; assay: Post-emergence herbicidal action against AVEFA; format: in vivo, Avena fatua; settings: Avena fatua, 504 h, visual assessment about 3 weeks after treatment, 100% = plants have died, 0% = like control plants
Protocol: Seeds of monocotyledonous and dicotyledonous weed and crop plants are laid out in sandy loam soil in wood-fiber pots, covered with soil and cultivated in a greenhouse under good growth conditions. 2 to 3 weeks after sowing, the test plants are treated at the one-leaf stage. The compounds of the invention, formulated in the form of wettable powders (WP) or as emulsion concentrates (EC), are then sprayed onto the green parts of the plants in the form of an aqueous suspension or emulsion at a water application rate equivalent to 600 to 800 l/ha, with addition of 0.2% wetting agent. After the test plants have been left to stand in the greenhouse under optimal growth conditions for about 3 weeks, the action of the preparations is assessed visually in comparison to untreated controls (herbicidal action in percent (%): 100% activity=the plants have died, 0% activity=like control plants). […] The tables below illustrate, in an illustrative manner, the post-emergence herbicidal action of the compounds of the invention, the herbicidal activity being stated in percent.

[4] = test system: ABUTH; assay: Post-emergence herbicidal action against ABUTH; format: in vivo, Abutilon theophrasti; settings: visual assessment about 3 weeks after treatment vs untreated controls
Summary of the method: (§2)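 Foliar application at one-leaf stage of formulated test compounds, aqueous spray at 600–800 l/ha with 0.2% wetting agent. Greenhouse, optimal conditions, ~3 weeks; damage scored visually in % relative to untreated plants.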

[5] = test system: VIOTR; assay: Pre-emergence herbicidal action against VIOTR; format: in vivo, Viola tricolor; settings: for pest or weed control at 80 g/ha / Pre-emergence action against VIOTR in %: dosage 80 g/ha
Summary of the method: as §1

[6] = test system: ABUTH; assay: Pre-emergence herbicidal action against ABUTH; format: in vivo, Abutilon theophrasti; settings: for pest or weed control at 80 g/ha / Pre-emergence action against ABUTH (herbicidal activity): scored visually after 3 weeks vs untreated controls (100% = plants have died, 0% = like control plants), 80 g/ha
Summary of the method: as §1

[7] = test system: ALOMY; assay: Pre-emergence herbicidal action against ALOMY; format: in vivo, Alopecurus myosuroides; settings: Alopecurus myosuroides, 504 h; 80 g/ha, pre-emergence, scored visually after 3 weeks vs untreated controls (100% = plants have died, 0% = like control plants)
Summary of the method: as §1

[8] = test system: SETVI; assay: Post-emergence herbicidal action against SETVI; format: in vivo, Setaria viridis; settings: dosage 20 g/ha
Summary of the method: as §2

[9] = test system: SETVI; assay: Pre-emergence herbicidal action against SETVI; format: in vivo, Setaria viridis; settings: Setaria viridis, 504 h; for pest or weed control at 80 g/ha: dosage 80 g/ha
Summary of the method: as §1

[10] = test system: ECHCG; assay: Post-emergence herbicidal action against ECHCG; format: in vivo, Echinochloa crus-galli; settings: Echinochloa crus-galli, 504 h, dosage 20 g/ha
Summary of the method: as §2

[11] = test system: MATIN; assay: Pre-emergence herbicidal action against MATIN; format: in vivo, Matricaria inodora; settings: for pest or weed control at 20 g/ha / pest or weed control at 80 g/ha: Tripleurospermum inodorum, 504 h
Summary of the method: as §1

[12] = test system: AMARE; assay: Pre-emergence herbicidal action against AMARE; format: in vivo, Amaranthus retroflexus
Summary of the method: as §1

[13] = test system: DIGSA; assay: Pre-emergence herbicidal action against DIGSA; format: in vivo, Digitaria sanguinalis
Summary of the method: as §1

[14] = test system: VIOTR; assay: Post-emergence herbicidal action against VIOTR; format: in vivo, Viola tricolor; settings: Viola tricolor, 504 h
Summary of the method: as §2

[15] = test system: AMARE; assay: Post-emergence herbicidal action against AMARE; format: in vivo, Amaranthus retroflexus; settings: 20 g/ha, visual assessment about 3 weeks after treatment, 100% = plants have died, 0% = like control plants; for pest or weed control at 20 g/ha: Amaranthus retroflexus, 504 h
Summary of the method: as §2

[16] = test system: STEME; assay: Pre-emergence herbicidal action against STEME; format: in vivo, Stellaria media; settings: for pest or weed control at 80 g/ha / Pre-emergence action against STEME in %: dosage 80 g/ha
Text: Seeds of monocotyledonous and dicotyledonous weed plants and crop plants are laid out in sandy loam soil in wood-fiber pots and covered with soil. The compounds of the invention, formulated in the form of wettable powders (WP) or as emulsion concentrates (EC), are then applied to the surface of the covering soil in the form of an aqueous suspension or emulsion at a water application rate equivalent to 600 to 800 l/ha, with addition of 0.2% wetting agent. After the treatment, the pots are placed in a greenhouse and kept under good growth conditions for the trial plants. The damage to the test plants is scored visually after a test period of 3 weeks by comparison with untreated controls (herbicidal activity in percent (%): 100% activity=the plants have died, 0% activity=like control plants). […] The tables below illustrate, in an illustrative manner, the post-emergence herbicidal action of the compounds of the invention, the herbicidal activity being stated in percent.

[17] = test system: POLCO; assay: Pre-emergence herbicidal action against POLCO; format: in vivo, Polygonum convolvulus
Summary of the method: as §1

[18] = test system: VERPE; assay: Pre-emergence herbicidal action against VERPE; format: in vivo, Veronica persica; settings: Veronica persica, 504 h
Summary of the method: as §1

[19] = test system: VERPE; assay: Post-emergence herbicidal action against VERPE; format: in vivo, Veronica persica; settings: 20 g/ha
Summary of the method: as §2

[20] = Abutilon theophrasti, 504 h, dosage 20 g/ha
[21] = Amaranthus retroflexus, 504 h, 20 g/ha, scored visually after 3 weeks vs untreated controls, 100% = plants have died, 0% = like control plants
[22] = Amaranthus retroflexus, 504 h, 80 g/ha, scored visually after 3 weeks vs untreated controls, 100% = plants have died, 0% = like control plants
[23] = Digitaria sanguinalis, 504 h, dosage 80 g/ha
[24] = 20 g/ha, scored visually after 3 weeks vs untreated controls, 100% = plants have died, 0% = like control plants
[25] = 80 g/ha, scored visually after 3 weeks vs untreated controls (100% = plants have died, 0% = like control plants)

Structure (SMILES) | pest or weed control at 20 g/ha [4, 20] [%] | pest or weed control at 80 g/ha ([5]; Viola tricolor, 504 h) [%] | pest or weed control at 80 g/ha ([6]; Abutilon theophrasti, 504 h) [%] | pest or weed control at 80 g/ha [9] [%] | pest or weed control at 20 g/ha ([11]; dosage 20 g/ha) [%] | pest or weed control at 80 g/ha ([11]; dosage 80 g/ha) [%] | pest or weed control at 20 g/ha [12, 21] [%] | pest or weed control at 80 g/ha [12, 22] [%] | pest or weed control at 80 g/ha [13, 23] [%] | pest or weed control at 20 g/ha [14] [%] | pest or weed control at 20 g/ha [15] [%] | pest or weed control at 80 g/ha ([16]; Stellaria media, 504 h) [%] | Pre-emergence action against VIOTR in % [5] [%] | Pre-emergence action against ABUTH (herbicidal activity) [6] [%] | Post-emergence action at 20 g/ha against AMARE in % [15] [%] | Pre-emergence action against MATIN in % ([11]; dosage 20 g/ha) [%] | Pre-emergence action against MATIN in % ([11]; dosage 80 g/ha) | Pre-emergence action against AMARE in % [12, 24] [%] | Pre-emergence action against AMARE in % [12, 25] [%] | Pre-emergence action against STEME in % [16] [%] | also measured
Cc1c(C(=O)Nc2nnnn2C)ccc(C(F)(F)F)c1C(=O)NCC(F)(F)F [Example 1-29] | 80 | 100 | 100 | 100 | 100 | 100 | 100 | 100 | 100 | – | – | – | – | – | – | – | – | – | – | – | pest or weed control at 80 g/ha ([1]; 80 g/ha): 90%; pest or weed control at 20 g/ha ([1]; 20 g/ha, scored visually after 3 weeks, 100% = plants have died, 0% = like control plants): 80%; pest or weed control at 80 g/ha ([2]; Echinochloa crus-galli, 504 h, 80 g/ha): 90%; pest or weed control at 5 g/ha ([3]; 5 g/ha): 80%; pest or weed control at 20 g/ha ([3]; 20 g/ha): 90%; pest or weed control at 20 g/ha ([5]; Viola tricolor, 504 h, dosage 20 g/ha): 100%; pest or weed control at 80 g/ha [7]: 100%; pest or weed control at 20 g/ha ([8]; Setaria viridis, 504 h): 80%; pest or weed control at 20 g/ha [10]: 80%; pest or weed control at 20 g/ha ([13]; Digitaria sanguinalis, 504 h, dosage 20 g/ha): 100%
CNC(=O)c1c(S(C)(=O)=O)ccc(C(=O)Nc2nnnn2C)c1Cl [Example 1-123] | 80 | 80 | 100 | – | 80 | 100 | 80 | 100 | 90 | 100 | 80 | 90 | – | – | – | – | – | – | – | – | –
Cn1nnnc1NC(=O)c1ccc(S(C)(=O)=O)c(C(=O)NC2CC2)c1Cl [Example 1-125] | – | 100 | – | – | 80 | 100 | 90 | 100 | 90 | 100 | 80 | 100 | – | – | – | – | – | – | – | – | pest or weed control at 5 g/ha ([14]; 5 g/ha): 100%; pest or weed control at 20 g/ha ([17]; Fallopia convolvulus, 504 h, dosage 20 g/ha): 80%; pest or weed control at 80 g/ha ([17]; Fallopia convolvulus, 504 h, dosage 80 g/ha): 80%; pest or weed control at 20 g/ha ([18]; dosage 20 g/ha): 80%; pest or weed control at 80 g/ha ([18]; dosage 80 g/ha): 80%
CCn1nnnc1NC(=O)c1ccc(S(C)(=O)=O)c(C(=O)NC)c1Cl [Example 2-123] | – | – | – | – | – | – | – | – | – | – | – | – | 80 | 100 | 80 | 80 | 100% | 80 | 100 | 80 | Pre-emergence action against POLCO in % ([17]; dosage 80 g/ha): 80%; Post-emergence action against VERPE in % [19]: 80%; Pre-emergence action against DIGSA in % ([13]; dosage 20 g/ha): 80%; Pre-emergence action against DIGSA in % ([13]; dosage 80 g/ha): 90%
CCc1c(C(=O)Nc2ncnn2C)ccc(C(F)(F)F)c1C(=O)NC1CC1 [Example 4-212] | – | – | – | – | – | – | – | – | – | – | – | – | 90 | 90 | 80 | 80 | 80% and 90% | 90 | 90 | 90 | Pre-emergence action against ECHCG in % ([2]; 80 g/ha): 80%; Post-emergence action against ABUTH in % ([4]; dosage 20 g/ha): 80%; Post-emergence action against SETVI in % [8]: 80%; Pre-emergence action against DIGSA in % ([13]; dosage 20 g/ha): 80%; Pre-emergence action against DIGSA in % ([13]; dosage 80 g/ha): 90%
CC(=O)NC(=O)c1c(C(F)(F)F)ccc(C(=O)Nc2nnc(C)o2)c1Cl [Example 6-252] | 80 | – | 80 | 90 | – | – | 80 | 90 | 90 | – | – | – | – | – | – | – | – | – | – | – | pest or weed control at 320 g/ha ([2]; Echinochloa crus-galli, 504 h, 320 g/ha): 90%; pest or weed control at 80 g/ha ([4]; Abutilon theophrasti, 504 h, dosage 80 g/ha): 100%; pest or weed control at 320 g/ha ([6]; Abutilon theophrasti, 504 h, Dosage: 320 g/ha, scored visually after 3 weeks, 100% = plants have died, 0% = like control plants): 90%; pest or weed control at 320 g/ha ([9]; dosage 320 g/ha): 90%; pest or weed control at 320 g/ha ([12]; Amaranthus retroflexus, 504 h, 320 g/ha, scored visually after 3 weeks, 100% = plants have died, 0% = like control plants): 90%; pest or weed control at 320 g/ha ([16]; Stellaria media, 504 h, dosage 320 g/ha): 90%; pest or weed control at 320 g/ha ([13]; Digitaria sanguinalis, 504 h, dosage 320 g/ha): 90%
